What was measured:
[1] = test system: K562 cells; experiment: K562 Cell Growth Inhibition Assay; type: cell-based; conditions: human chronic myeloid leukemia K562 cells, 72 h, 10000/well
Description: K562 Cell Growth Inhibition Assay
K562 cells, a human myelogenous leukemia cell line, were seeded into a 24 wells tissue culture plate (Falcon 3047) (10000/well) in the presence of increasing concentrations of the compounds. After 72 h, cells were harvested and were counted using a cell counter (Coulter Counter-ZM). The percent of inhibition was evaluated in respect to the untreated control cells.
(§1) The inhibitory activity data for a representative group of compounds according to the present invention, obtained both in the in-vitro p45 v-abl kinase assay and in the […] human chronic myeloid leukemia K562 cell growth inhibition assay described above, are set out in the following Table I.

[2] = molecular target: p45 v-abl tyrosine kinase; experiment: p45 v-abl Kinase Assay; type: biochemical, Abelson murine leukemia virus; conditions: in-vitro; (Val^5)-Angiotensin II peptide 2 mM, ATP 50 μM, pH 8.0, 30° C.
Description: p45 v-abl Kinase Purification
The enzyme used in our tests was the p45 v-abl tyrosine kinase which represents the catalytic domain of the Abelson tyrosine kinase (isolated form the Abelson murine leukemia virus). The p45 v-abl kinase was produced and isolated as described by Wang at al. in J. Biol. Chem. 260, 64 (1985) and by Ferguson et al. in J. Biol. Chem. 260, 3652 (1985) and in Biochem. J. 257, 321 (1989).
(Val^5)-Angiotensin II phosphorylation was performed by incubation with 40 ng of purified abl-kinase and (γ^32 -p)ATP, in 50 μl of buffer containing Tris-Hcl 25 mM, pH 8.0. MgCl2 10 mM and dithiothreitol 0.1 mM (kinase buffer). The reaction mixture was incubated for the indicated time at 30° C. and the reaction stopped by adding 50 μl of 5% trichloroacetic acid. After a brief incubation on ice, tubes were centrifuged. The supernatants were spotted on phosphocellulose paper squares (Whatman P-81) and washed extensively in acetic acid. The radioactivity bound to dried phosphocellulose squares was measured in a liquid scintillation counter. IC50 values were calculated from triplicated determinations of each experimental point. Each inhibitor was tested at concentrations ranging from […] in the presence of fixed concentrations of peptide (2 mM) and ATP (50 μM.
as §1

| Structure (SMILES) | IC50 [1] [µM] | IC50 [2] [µM] |
| --- | --- | --- |
| O=C1Nc2ncccc2C1=Cc1cc(O)c2c(c1O)CCCC2 [3-[(1,4-dihydroxy-5,6,7,8-tetrahydronaphth-2-yl)methylene]-7-azaoxindole] | 2.36 | 2.14 |
| Cc1[nH]c2ccccc2c1C=C1C(=O)Nc2ncccc21 [3-[(2-methyl-3-indolyl)methylene]-7-azaoxindole] | 2.61 | 0.04 |
| COc1ccc2[nH]cc(C=C3C(=O)Nc4ncccc43)c2c1 [3-[(5-methoxy-3-indolyl)methylene]-7-azaoxindole] | 3.21 | 0.03 |
| O=C1Nc2ncccc2C1=Cc1c[nH]c2ncccc12 [3-[(7-azaindol-3-yl)methylene]-7-azaoxindole] | 3.89 |  |
